Measured values reported in PMC12206857 (Frontiers in Microbiology, 2025).
“Also recorded” adds a separate entry of the source. Like-named read-outs stand apart in the source and are kept apart here. *1 amine or outer side, *2 acyl side, *3 side chain or, on linkers, in order; H or OH if unused. Where a SMILES comes first, the peptide text is derived from it. [ ]: non-standard residue; d: D form. X1 = CC(C)CCCCCCCCC[C@H](CC(=O)[*:2])N[*:1]

Assays:
F. graminearum [1] = format: cell-based, Fusarium graminearum; details: dose-dependent, DCFH-DA fluorescence
DON and ZEN = tested on: DON and ZEN; parameters: species or system Fusarium graminearum on corn seeds; details: in vivo
F. graminearum [2] = details: mixture of bacillomycin D with different fatty acid chain lengths; ref Gu et al., 2017; cited from earlier work
trypsin = details: 5 mg/mL enzyme, 1 h, 37°C, stopped 10 min at 100°C; read-out antifungal activity against F. graminearum by filter paper method; n = 3
papain = target: T1, papain (Carica papaya, UniProt P00784); details: n = 3
T1 sequence (P00784 134-345): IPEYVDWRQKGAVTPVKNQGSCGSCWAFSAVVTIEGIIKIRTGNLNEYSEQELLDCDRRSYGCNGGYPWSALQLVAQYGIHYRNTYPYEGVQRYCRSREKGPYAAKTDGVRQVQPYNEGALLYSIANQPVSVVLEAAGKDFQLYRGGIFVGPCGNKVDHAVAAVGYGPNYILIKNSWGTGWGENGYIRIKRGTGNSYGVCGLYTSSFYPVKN

F. graminearum hyphae = format: cell-based, Fusarium graminearum; details: 16 and 32 μg/mL, 12 h in PDB at 28°C
F. graminearum [3] = format: in vivo, Fusarium graminearum on corn seeds; details: seeds soaked in 64 μg/mL, sprayed with spores 1 × 10^5 CFU/mL, 28°C, 10 seeds per group
F. graminearum [4] = format: cell-based, Fusarium graminearum; details: DiSC3(5) fluorescence
proteinase K = proteinase K (Parengyodontium album, UniProt P06873); details: n = 3
Chain of proteinase K (P06873 106-384): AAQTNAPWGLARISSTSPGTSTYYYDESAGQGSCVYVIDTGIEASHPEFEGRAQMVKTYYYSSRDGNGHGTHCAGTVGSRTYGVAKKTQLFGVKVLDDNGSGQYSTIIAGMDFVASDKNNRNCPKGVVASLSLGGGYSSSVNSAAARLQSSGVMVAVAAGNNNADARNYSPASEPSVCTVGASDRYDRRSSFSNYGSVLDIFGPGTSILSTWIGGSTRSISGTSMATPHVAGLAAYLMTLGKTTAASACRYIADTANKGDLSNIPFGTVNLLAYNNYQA

F. graminearum [5] = format: physicochemical, Fusarium graminearum; details: filter paper method; for Effect of divalent cations Fe2+, Mg2+, Ca2+ on antifungal activity: 10 nM metal ion; for Thermal stability of antifungal activity: 25°C, 50°C, 100°C water for 30 min
pepsin = details: 5 mg/mL enzyme, 1 h, 37°C, stopped 10 min at 100°C; read-out antifungal activity against F. graminearum by filter paper method; n = 3
Fusarium oxysporum = details: 25 μg/mL or 50 μg/mL; ref Hua et al., 2023; cited from earlier work
F. graminearum conidia = details: ref Gong et al., 2015; cited from earlier work
F. graminearum cells = details: ref Liang et al., 2023; cited from earlier work

Compound: CC(C)CCCCCCCCC[C@@H]1CC(=O)N[C@@H](CC(N)=O)C(=O)N[C@H](Cc2ccc(O)cc2)C(=O)N[C@H](CC(N)=O)C(=O)N2CCC[C@H]2C(=O)N[C@@H](CCC(=O)O)C(=O)N[C@H](CO)C(=O)N[C@@H]([C@@H](C)O)C(=O)N1 [bacillomycin D, C15-bacillomycin D] (cyclo([X1]N[dY][dN]PE[dS]T))
- ROS levels in F. graminearum cells (in words) (F. graminearum [1]): induced abnormal ROS accumulation
- DON toxin synthesis in treated maize seeds (DON and ZEN): no detectable synthesis
- ZEN toxin synthesis in treated maize seeds (DON and ZEN): no detectable synthesis
- Half-inhibitory concentration (IC50) on F. graminearum (F. graminearum [2]): approximately 30 μg/mL
- Activity after treatment with trypsin (trypsin): retained their activity
- Activity after treatment with papain (papain): retained their activity
- Hyphal morphology by SEM (F. graminearum hyphae): induced abnormal development
- Infection of maize seeds by F. graminearum (F. graminearum [3]): completely preventing infection
- Cell membrane potential (in words) (F. graminearum [4]): induced depolarization
- Activity after treatment with proteinase K (proteinase K): retained their activity
- Stability of antifungal activity in the presence of metal ions (F. graminearum [5]; 10 nM Na+, K+, Ca2+, Mg2+, Cu2+, Fe2+, Fe3+, room temperature, 2.5 mg/mL, n = 3): retained stable antibacterial activity
- Effect of divalent cations Fe2+, Mg2+, Ca2+ on antifungal activity (F. graminearum [5]; room temperature, 2.5 mg/mL, n = 3): enhance their antifungal activity
- Effect of divalent cations Fe2+, Mg2+, Ca2+ on antifungal activity (F. graminearum [5]; room temperature, 2.5 mg/mL, n = 3, listed as eumelanin): significantly enhanced
- Thermal stability of antifungal activity (F. graminearum [5]; 7 μL of 2.5 mg/mL, colony diameter after 24 h at 28°C, n = 3): remains stable
- Thermal stability of antifungal activity (F. graminearum [5]; 7 μL of 2.5 mg/mL, colony diameter after 24 h at 28°C, n = 3, listed as Bacillomycin D): maintained stable antibacterial activity
- Antifungal activity across pH range 2–12 (F. graminearum [5]; pH 2–12, room temperature): maintains good antifungal activity
- pH stability of antifungal activity, pH 8 or 10 (F. graminearum [5]; pH 8 or 10 (pH 8–10), room temperature, 7 μL of 2.5 mg/mL, colony diameter after 24 h at 28°C, n = 3): significant enhancement of antibacterial activity; also recorded: significant increase in antifungal activity
- pH stability of antifungal activity, pH 14 (F. graminearum [5]; pH 14, room temperature, 2.5 mg/mL, n = 3): complete loss of activity
- pH stability of antifungal activity, other pH conditions (F. graminearum [5]; pH values from 2 to 14 other than 8, 10 and 14, room temperature, 2.5 mg/mL, n = 3): the activity remained stable
- Activity after treatment with pepsin (pepsin): retained their activity

Compound: iturin A
- Cell membrane integrity of Fusarium oxysporum (Fusarium oxysporum): disrupted
- ROS in Fusarium oxysporum (Fusarium oxysporum): significantly increased
- MIC, complete killing of F. graminearum conidia (F. graminearum conidia): 50 µg/mL

Compound: surfactin
- Intracellular ROS accumulation in F. graminearum cells (F. graminearum cells): induce intracellular ROS accumulation
